US20090118301A1, “Compositions and Methods for Treating Cancer” (Arbor Vita Corporation, priority 2007, published 2009)

Columns and labels:
[1] = target: T1, MAGI-1 PDZ domain 1 (interaction with HPV E6 protein) (Homo sapiens, UniProt Q96QZ7); assay: matrix/array PDZ/PL competition assay, titration, Magi1 d1; assay type: binding; details: compared with the other PDZ domains and compounds of Table 1
T1 construct: MAGI-1 PDZ domain 1 was used as a target for rational drug design
Experimental: The best hits from in silico screening were subject to screening in a matrix/array competition assay format, i.e., assays where docking of ligands to solid phase PDZ domain in fusion proteins was assessed in the presence and absence of the small molecule competitor as described elsewhere. The compounds were screened for inhibition of the PDZ/PL interactions.
The small molecules were considered as hits based on the OD450 readout of the assay. The best of the hits in this analysis were then subject to titration binding studies, i.e., titration of compounds in the same competition assay to estimate the IC50 value.

3Y1 pBlast-E6-16 cells [2] = assay: cell migration assay (96-well filter plate); assay type: cell-based, rat; details: 40 μM, 24 hours, OD560; compared with 3Y1 pBlast E6-16 ΔPL cells
Experimental: The effect of compound 7291-0042 on the rate of cell migration and proliferation was determined on three different cell lines, 3Y1 pBlast, 3Y1 pBlast-E6-16 and 3Y1 pBlast E6-16 ΔPL.
Plasmid constructs of HPV E6-16 (wild type) and HPV E6-16 ΔPL were generated using the vector pBlast (InvivoGen, Toulouse, France). Recombinant plasmids were generated by recombinant DNA cloning methods known in the art.
These constructs were transfected into rat 3Y1 primary cells using the LipofectAMINE™ 2000 Reagent (Invitrogen Cat#11668-027) and accompanying protocol. pBlast without insert was transfected as a negative control. Cells were incubated at 37° in RPMI media with non-essential amino acids, 10% FBS, and 1 ug/mL […] until confluent (about 4 days).
Each of the three transfected cell lines were seeded onto a 96-well filter plate with a feeder tray and lid in RPMI media with a gradient of 0.5% to 10% FBS and non-essential amino acids. Three different treatments were applied to the cell lines. The cells were treated with either 40 μM or 60 μM of the compound 7291-0042, or DMSO. […] The undersides of the filters were left uncoated. […] Cell migration through the membrane was quantified by staining the cells that attach to the lower side of the membrane with a colorometric dye at OD560 after 24 hours with a microplate reader.

3Y1 pBlast-E6-16 cells [3] = assay: cell proliferation assay; assay type: cell-based, rat; details: 40 μM; compared with 3Y1 pBlast E6-16 ΔPL and 3Y1 pBlast
Experimental: Compound 7291-0042 was further analyzed for its ability to block the development of other cancerous characteristics in cells by a cell proliferation assay. The three cell lines described in the Example 2 were seeded onto a 12-well plate, and allowed to adhere and grow to confluent (about 24 hours) in EMEM media with 10% FBS and non-essential amino acids. 100 μl of compound 7291-0042 at concentrations 0 μM, 20 μM, 40 μM, and 80 μM was applied to the cells. The cells were measured at 24, 48, 72 and 96 hours after addition of the compound.

SiHa cells = assay: WST-1 cytotoxicity assay, SiHa; assay type: cell-based; details: 60 μM, HPV-positive cervical cancer cell line
Experimental: (§1) To determine the cytotoxicity of the compound 7291-0042, drug toxicity studies were performed in HPV-positive (E6 transformed) cervical cancer cell lines SiHa and HeLa and HPV-negative cervical cancer cell line […]. […] and SiHa cells were seeded onto a 12-well plate, allowed to adhere and grown to 10,000 cells per well. HeLa cells were seeded, allowed to adhere and grown to 5,000 cells per well. 100 μl of compound 7291-0042 at a concentration of 60 μM or DMSO was added to the cells 24 hours after plating. Cytotoxicity of the cells was assessed by the WST-1 calorimetric assay. In brief, the calorimetric assay is based on the cleavage of the tetrazolium salt WST-1 to a formazan-class dye by mitochondrial succinate-tetrazolium reductase in viable cells. As the cells proliferate, more WST-1 is converted to the formazan product. The quantity of formazan dye is directly related to the number of metabolically active cells, and can be quantified by measuring the absorbance at 420-480 nm (Amax 450 nm) in a multiwell plate reader.

HeLa cells [4] = assay: WST-1 cytotoxicity assay, HeLa; assay type: cell-based; details: 60 μM, HPV-positive cervical cancer cell line
Experimental: as §1

C33a cells [5] = assay: WST-1 cytotoxicity assay, C33a; assay type: cell-based; details: 60 μM, HPV-negative cervical cancer cell line
Experimental: as §1

E6 protein (HPV18-E6) = assay: E6 oncoprotein expression by Western blot in HeLa cells; assay type: cell-based; details: 60-120 μM, 24 hours, vs DMSO control and untreated cells
Experimental: To determine whether the compound 7291-0042 has an effect on E6 protein expression, cervical cancer cell line HeLa was used. HeLa cells were seeded, allowed to adhere and grown to 0.5×10^6 cells per well. Compound 7291-0042 at a concentration of 60 μM, 80 μM, 100 μM, 120 μM, or DMSO was added to the cells 24 hours after plating and incubated for 24 hours. Cells that were untreated served as an additional control. Western blot was performed to determine the relative amounts of the E6 protein present in the different samples. Briefly, the cells were homogenized in a lysate buffer and the protein samples were separated using SDS-PAGE and transferred to a membrane for detection. The membrane was incubated with an anti-HPV18-E6 antibody, labeled with a secondary antibody-enzyme conjugate and detected. To ensure that the amount of protein loaded for each sample was similar, the membrane was stripped and labeled with an antibody that recognizes a protein encoding a housekeeping gene. For this experiment, an antibody against glyceraldehyde-3-phosphate dehydrogenase (GAPDH) was used.

[6] = test system: p53 tumor suppressor protein; assay: p53 protein expression by immunocytochemistry in HeLa cells; assay type: cell-based; details: 80-120 μM, 24 hours, vs DMSO control
Experimental: To determine whether the compound 7291-0042 has an effect on p53 protein expression, cervical cancer cell line HeLa was used. HeLa cells were seeded, allowed to adhere and grown to 0.5×10^6 cells per well. 1 ml of compound 7291-0042 at a concentration of 80 μM, 100 μM, 120 μM, or DMSO was added to the cells 24 hours after plating and incubated for 24 hours. Immunocytochemistry with anti-p53 monoclonal antibody was performed to determine the relative amounts of the p53 protein present in the different cell samples.

HeLa cells [7] = assay: TUNEL apoptosis assay, HeLa; assay type: cell-based; details: 120 M (so in the source), 48 hours, flow cytometry
Experimental: (§2) To determine whether the compound 7291-0042 induces apoptosis in HPV-positive cervical cancer cell lines, HeLa cells and the HPV-negative cell line C33A were used. HeLa and C33A cells were seeded at 1-2×10^6 in 10-cm dishes and allowed to adhere and grow to 80-90% confluency. Compound 7291-0042 at a concentration of 60 μM, 80 μM, 100 μM, 120 μM, or DMSO was added to the cells 24 hours after plating and incubated for 48 hours. TUNEL assay was performed for the specific quantitation of apoptotic cells within a cell population using the DeadEnd Fluorometric TUNEL System from Promega (Madison, Wis.). Briefly, the cells were harvested by trypsinization and washed in PBS. Cells were then fixed in 4% formalin and incubated in buffer containing nucleotides and rTdT enzyme for 1 hour at 37° C. After terminating the reaction by adding EDTA, cells were washed with PBS and permeabilized with Triton X-100 and propidium iodide was added to stain all the cells. Cells were then analyzed by flow cytometery. Apoptosis signal was quantified by measuring green fluorescence of fluorescein-12-dUTP at 520±20 nm and red fluorescence of propidium iodide at >620 nm.

C33a cells [8] = assay: TUNEL apoptosis assay, C33A; assay type: cell-based; details: 120 M (so in the source), 48 hours, flow cytometry
Experimental: as §2

T1 sequence (Q96QZ7 472-554 limits assumed): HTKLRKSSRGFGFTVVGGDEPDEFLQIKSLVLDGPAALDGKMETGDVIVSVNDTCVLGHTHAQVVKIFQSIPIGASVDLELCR

## CCc1cccc2c(C(c3ccccc3OCC(=O)O)c3c[nH]c4c(CC)cccc34)c[nH]c12 [7291-0042]
[1]
  specificity of disruption of the interaction between HPV E6 protein and MAGI-1 PDZ1: greatest specificity
3Y1 pBlast-E6-16 cells [2]
  rate of cell migration: restored baseline cell migration
3Y1 pBlast-E6-16 cells [3]
  rate of cell proliferation: restored baseline rate of cell proliferation
SiHa cells
  cytotoxicity, SiHa cells: selectively killed
HeLa cells [4]
  cytotoxicity, HeLa cells: selectively killed
C33a cells [5]
  cytotoxicity, C33a cells: remained viable
E6 protein (HPV18-E6)
  amount of E6 onco protein: decreased
[6]
  amount of p53 tumor suppressor protein: increased
HeLa cells [7]
  apoptotic cells, HeLa: 20%
C33a cells [8]
  apoptotic cells, C33A: 4%
